Legend:
[1] = biological target: T1, recombinant Myc protein (full length c-Myc) (Homo sapiens, UniProt P01106); assay: competitive fluorescence polarization against 10074-G5; format: binding; conditions: 10 µM Myc, 10 µM 10074-G5, DL78 20-60 µM, 30 min room temperature; site unproven, competitive or allosteric
T1 construct: full length recombinant protein, gift of A. Chinnaiyan

[2] = biological target: T2, c-Myc Micro-Tag (Myc-MicroTag) (Homo sapiens, UniProt P01106); assay: Micro-Tag thermal-shift target engagement (enzyme complementation); format: biochemical
T2 construct: 15-residue Micro-Tag at C-terminus; transiently expressed in HEK293; Triton X-100 lysate
T2 sequence (P01106 whole entry): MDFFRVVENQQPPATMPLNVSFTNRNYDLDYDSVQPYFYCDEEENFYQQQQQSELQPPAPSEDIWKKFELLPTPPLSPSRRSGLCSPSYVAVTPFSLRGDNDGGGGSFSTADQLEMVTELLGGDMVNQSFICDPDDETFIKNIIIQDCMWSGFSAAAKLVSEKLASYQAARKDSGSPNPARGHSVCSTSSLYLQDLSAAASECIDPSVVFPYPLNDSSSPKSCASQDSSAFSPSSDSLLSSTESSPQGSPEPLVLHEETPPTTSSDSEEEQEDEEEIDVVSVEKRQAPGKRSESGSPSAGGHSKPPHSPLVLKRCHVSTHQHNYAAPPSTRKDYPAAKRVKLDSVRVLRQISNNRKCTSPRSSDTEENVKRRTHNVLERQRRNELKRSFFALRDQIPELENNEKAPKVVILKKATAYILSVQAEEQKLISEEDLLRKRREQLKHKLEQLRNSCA

T1 sequence (P01106 whole entry): as above

`COc1ccc2oc(C(=O)c3c(C)oc4ccc(OC)cc34)cc2c1` [DL78, (5-methoxy-2-methylbenzofuran-3-yl)(5-methoxybenzofuran-2-yl)methanone] was tested, and the “competitive fluorescence polarization against 10074-G5” value [1] was “DL78 competed with 10074-G5 in a dose dependent manner” and the EC50 [2] was 1800 nM.

Source: paper PMC12578881, “Pan-cancer Myc modulator that targets Myc-α-tubulin interaction to drive selective mitotic catastrophe” (Scientific Reports, 2025)
